Patent US6465527B1, “Iodinated hydrocarbon pesticide” (priority 1999, dated 2002)

Tests used:
Format in all cases: in vivo
[1] = system: German cockroach, Blattella germanica (L.); test: Fumigant toxicity in sealed glass jar, German cockroach; conditions: 30-60 adult males
[2] = system: American cockroach, Periplaneta americana (L.); test: Fumigant toxicity in sealed glass jar, American cockroach; conditions: 8-36 adult males
[3] = system: Cowpea weevil, Callosobruchus maculatus (F.); test: Fumigant toxicity, Cowpea weevil; parameters: concentration or dose not given beside the values; conditions: 30 adults
Protocol: Shown in Table 2 is the toxicity of both monoiodinated and diiodinated hydrocarbons to the German and American cockroach and the Cowpea weevil after 24 hours of exposure.

[4] = system: cyst [Heterodera glycines]; test: Greenhouse nematicide test, iodinated C1-C3 hydrocarbons (Experiment 4); conditions: 0.4 ml rate
Protocol: In this experiment, the nematicidal properties of low molecular weight iodinated hydrocarbons were investigated. The nematicidal properties of iodinated C1-C3 hydrocarbons were evaluated in greenhouse experiments with field soil infested with root-knot [Meloidogyne arenaria] and cyst [Heterodera glycines] nematodes. lodomethane, di-iodomethane, iodoethane, di-iodoethane, and 1-iodopropane were added to soil at rates of 0.1, 0.2 and 0.4 ml/kg soil.
The treated soil was kept moist for 10 days when soil samples were taken for nematode analysis and ‘Brim’ soybean [Glycine max] planted. Soybeans were allowed to grow for 8 weeks and then were removed from the soil to determine plant growth, root-knot indices and the number of galls generated by M arenaria. […] All compounds except 1-iodopropane increased fresh shoot weight when applied at ≧0.1 ml/kg soil.

Meloidogyne arenaria = test: Greenhouse nematicide test, iodomethane vs ethylene diiodide (Experiment 5)
Protocol: (§1) In this experiment, the nematotoxic properties of ethylene diiodide were compared to that of methyl iodide. The nematicidal efficacies of iodomethane [IM] and ethylene diiodide [EDI] were compared in a greenhouse experiment using field soil infested with Meloidogyne arenaria, Pratylenchus brachyurus, and Paratrichodorus christiei.
(§2) Each compound was added to soil at rates of 100, 200, 300 and 400 mg s/kg of soil. The soil was potted and kept moist for two weeks when it was planted with ‘Brim’ soybean after taking samples for nematological analyses. After eight weeks of growth, the plants were removed from the pots and soil samples taken. Data was collected on weights of fresh roots and shoots, general appearance of roots [root condition index] and root gall formation by M. arenaria. All EDI rates eliminated M. arenaria juveniles [J2] and populations of the other nematodes in the preplant samples; IM reduced J2 numbers by 50-70%, eliminated P. christiei with the 400 mg rate, but had no effect on P. brachyurus. […] The general appearance of roots was improved by EDI at rates ≦300 mg, but MI had no effect on the variable. […] M. arenaria J2 populations in roots were reduced by 60-70% by MI treatments, but the compound had no effect on root populations of P. brachyurus. MI had no effect on J2 populations in the final soil samples, although it suppressed P. christiei, by 50-70%.

[5] = system: Paratrichodorus christiei; test: as above; conditions: all rates (100-400 mg/kg of soil)
Protocol: as §1, §2

Pratylenchus brachyurus = test: as above; conditions: rates 100-400 mg/kg of soil
Protocol: as §1, §2

'Brim' soybean = test: Soybean growth and root condition in treated soil (Experiment 5)
Protocol: as §1, §2

[6] = system: reniform nematode [Rotylenchulus reniformis]; test: Greenhouse nematicide test in cotton field soil, covered and uncovered pots (Experiment 6, FIGS. 1-4)
Description: FIGS. 2 and 3 illustrate the effectiveness of the diiodoethane and diiodopropane in eliminating the nematode (Rotylenchulus reniformis) from a soil sample. The “x” axis on the top row illustrates the quantity of iodinated hydrocarbon in milligrams per kilogram of soil. The next two rows below the “x” axis indicate the number of nematodes per 100 milliliters of soil, which is also indicated on the “y” axis. In FIG. 2, 1,2-diiodoethane was applied to the soil both in a covered state and an uncovered state. […] This is believed to be so because of the volatility of 1,2 diiodoethane, wherein the cover slows down the rate at which the compound evaporates into the atmosphere.
In this experiment, the pesticidal and herbicidal properties of volatile, low molecular weight, iodinated hydrocarbons were investigated. The relative nematicidal efficacy of iodomethane [C1], 1,2-diiodoethane [C2], 1,3-diiodopropane [C3] and 1,4-diiodobutane [C4] was studied in greenhouse experiments with soil from a cotton field infested with the reniform nematode [Rotylenchulus reniformis]. The chemicals were obtained from Aldrich, Milwaukee, U.S.A. Emulsifiable concentrates of the compounds were prepared by dilution in acetone containing an emulsogen.
For each chemical, an aqueous emulsion with 0.2% [w/w] of the compound was prepared and was applied to soil at rates of 2, 4, 6, 8, 10, and 12 mgs a.i./Kg soil. The treated soil was mixed and transferred to 1L capacity 10-cm diameter cylindrical pots. Pots with untreated soil [control] and with treated soil were placed on a greenhouse bench in a randomized complete block design. Each treatment was represented by 14 replications [pots], one half of which were left uncovered, and the other 7 were covered with polyethylene plastic bags [approx. 1 mil thickness] retained with a rubber around the pots. Soil samples for nematological analysis [salad bowl incubation technique] were collected 7-10 days after application of the materials. […] In covered pots, applications of the material were particularly effective resulting in 100% kill with the 10 and 12 mg rates. All dosages of C3 and C4 eliminated the nematode in covered pots. […] In a greenhouse experiment of similar design to the nematicide experiments, the C3 and C4 emulsions were applied at rates of 2-20 mgs a.i./Kg soil to a soil infested with crabgrass [Digitaria sanguinalis], purple nutsedge [Cyperus rotundus], Jimson weed [Datura stramonium] and a variety of other weed species. All pots were covered, and the number of weeds were counted 7, 14 and 30 days after application of the chemicals.

[7] = system: Meloidogyne arenaria, Pratylenchus brachyurus, and Paratrichodorus christiei; test: Nematodes in roots and soils at end of Experiment 5 (all nematodes); conditions: after eight weeks of growth
Protocol: as §1, §2

Compound: ICCI [1,2-diiodoethane]
- % Mortality after 1 h exposure, German cockroach ([1]; 1 h exposure): 40%
- % Mortality after 24 h exposure, German cockroach ([1]; 24 h exposure): 10%
- % Mortality after 1 h exposure, American cockroach ([2]; 1 h exposure): 8%
- % Mortality after 24 h exposure, American cockroach ([2]; 24 h exposure): 100%
- % Mortality after 24 h exposure, Cowpea weevil [3]: 100%
- H. glycines J2 populations in soil [4]: eliminated
- M. arenaria juveniles [J2] in preplant samples (Meloidogyne arenaria; all rates (100, 200, 300, 400 mg/kg of soil)): eliminated
- Galls in roots of plants from treated soil (M. arenaria) (Meloidogyne arenaria; soybean after eight weeks): no galls
- P. christiei populations in preplant samples [5]: eliminated
- P. brachyurus populations in preplant samples (Pratylenchus brachyurus): eliminated
- Phytotoxicity to soybean ('Brim' soybean; 400 mg): phytotoxic
- General appearance of roots [root condition index] ('Brim' soybean; rates ≦300 mg): improved
- Numbers of the nematode in soil in response to rates ([6]; 2-12 mgs a.i./Kg soil): declined linearly
- Kill of the nematode ([6]; covered pots, 10 and 12 mg rates): 100%
- Effectiveness covered versus uncovered at eliminating the nematodes (FIG. 2) ([6]; covered state and uncovered state): covered samples were more effective
- Nematodes in roots and soils at end of experiment [7]: no nematodes
